Molecular target: T1, Full-length USP19 (Homo sapiens, UniProt O94966)
T1 construct: Full-length USP19 was purchased from Boston Biochem (E-576); purchased Boston Biochem E-576
T1 sequence (O94966 1-1318): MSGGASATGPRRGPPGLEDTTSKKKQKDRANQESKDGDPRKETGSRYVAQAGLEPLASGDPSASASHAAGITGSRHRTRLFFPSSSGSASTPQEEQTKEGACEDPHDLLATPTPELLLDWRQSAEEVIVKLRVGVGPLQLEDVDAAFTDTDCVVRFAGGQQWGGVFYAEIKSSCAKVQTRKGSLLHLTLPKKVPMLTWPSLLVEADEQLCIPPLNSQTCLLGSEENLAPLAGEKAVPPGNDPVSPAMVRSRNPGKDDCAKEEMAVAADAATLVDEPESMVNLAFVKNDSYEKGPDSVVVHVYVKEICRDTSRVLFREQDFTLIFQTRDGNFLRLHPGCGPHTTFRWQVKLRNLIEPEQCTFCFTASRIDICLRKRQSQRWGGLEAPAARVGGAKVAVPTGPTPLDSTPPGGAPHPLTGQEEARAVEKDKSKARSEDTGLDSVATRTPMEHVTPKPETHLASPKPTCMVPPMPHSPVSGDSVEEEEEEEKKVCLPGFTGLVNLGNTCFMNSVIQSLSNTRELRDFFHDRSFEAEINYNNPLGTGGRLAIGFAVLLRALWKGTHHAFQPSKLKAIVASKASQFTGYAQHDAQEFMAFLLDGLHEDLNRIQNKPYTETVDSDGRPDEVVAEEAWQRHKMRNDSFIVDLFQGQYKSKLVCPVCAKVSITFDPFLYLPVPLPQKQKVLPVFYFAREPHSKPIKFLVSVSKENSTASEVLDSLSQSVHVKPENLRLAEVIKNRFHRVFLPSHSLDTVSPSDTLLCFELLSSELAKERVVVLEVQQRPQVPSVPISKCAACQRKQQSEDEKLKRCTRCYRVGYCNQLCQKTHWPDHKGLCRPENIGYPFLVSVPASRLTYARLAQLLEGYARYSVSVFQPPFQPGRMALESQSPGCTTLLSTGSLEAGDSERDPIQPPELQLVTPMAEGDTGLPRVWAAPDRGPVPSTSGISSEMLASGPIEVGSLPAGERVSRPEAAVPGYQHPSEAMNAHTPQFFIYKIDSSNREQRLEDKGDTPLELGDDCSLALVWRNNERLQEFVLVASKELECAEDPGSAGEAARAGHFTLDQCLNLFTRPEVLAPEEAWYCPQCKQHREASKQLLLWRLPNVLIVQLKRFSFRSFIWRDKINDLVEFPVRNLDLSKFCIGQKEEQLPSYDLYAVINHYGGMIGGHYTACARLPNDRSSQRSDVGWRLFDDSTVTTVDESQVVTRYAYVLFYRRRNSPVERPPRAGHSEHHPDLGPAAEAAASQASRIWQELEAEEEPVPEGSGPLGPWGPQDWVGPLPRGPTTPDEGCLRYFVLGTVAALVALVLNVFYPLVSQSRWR
Assay: USP19 fluorescence polarisation (FP) assay, Ubiquitin-Lys-TAMRA substrate
Assay type: biochemical
Conditions: average of at least two duplicate experiments
Description: USP19 activity was determined in a fluorescence polarisation (FP) homogeneous assay using the isopeptide Ubiquitin-Lys-TAMRA substrate (either AUB-101, Almac Sciences Scotland Limited, or U-558, Boston Biochem, both of which gave identical results). Full-length USP19 was purchased from Boston Biochem (E-576). Unless otherwise stated, all other reagents were purchased from Sigma. Enzymatic reactions were conducted in black flat bottom polystyrene 384-well plates (Nunc) and 30 μL total volume. USP19 (2.5 nM, 10 μL) was incubated in assay buffer (50 mM HEPES (pH 7.4), 150 mM NaCl, 5 mM DTT, 0.05% BSA (w/v), 0.05% CHAPS) in the presence or absence of inhibitor (10 μL). Inhibitors were stored as 10 mM DMSO stocks in an inert environment (low humidity, dark, low oxygen, rt) using the StoragePod® system (Roylan Developments) and serial dilutions were prepared in buffer just prior to the assay (from 200 μM to 2 μM, 8-18 data point curve). Following incubation at RT for 30 min, the enzymatic reactions were initiated by dispensing the Ub substrate (500 nM, 10 μL). FP was measured every 15 min over a period of 90 min (within the linear range of the assay) using a Synergy 4 plate reader (BioTek) exciting at 530 nm and measuring the amount of parallel and perpendicular light at 575 nm. The FP signal was subsequently normalised to the no compound control. Data were plotted and fitted, and the concentrations resulting in 50% inhibition (IC50) were calculated using the non-linear regression curve fitting model using GraphPad (Prism). IC50 values for the inhibitors of the invention are compiled in Tables 1 and 3 and represent the average of at least two duplicate experiments.

| Structure (SMILES) | IC50 [µM] |
| --- | --- |
| CN[C@@H]1CCN(C(=O)N2CC[C@@H](Cn3cnc(-c4ccccc4OC)cc3=O)C3(CCCC3)C2)[C@H](c2cccc(F)c2)C1 [Example 102, 3-(((R)-7-((2S,4R)-2-(3-Fluorophenyl)-4-(methylamino)piperidine-1-carbonyl)-7-azaspiro[4.5]decan-10-yl)methyl)-6-(2-methoxyphenyl)pyrimidin-4(3H)-one] | < 0.01 |
| COCCN[C@@H]1CCN(C(=O)N2CC[C@@H](Cn3cnc(-c4ccccc4)cc3=O)C3(CCCC3)C2)[C@H](c2cccc(F)c2)C1 [Example 195, 3-(((R)-7-((2S,4R)-2-(3-Fluorophenyl)-4-((2-methoxyethyl)amino)piperidine-1-carbonyl)-7-azaspiro[4.5]decan-10-yl)methyl)-6-phenylpyrimidin-4(3H)-one] | < 0.01 |
| N[C@@H]1CCN(C(=O)N2CCC(F)(Cn3cnc(-c4ccccc4)cc3=O)C3(CCCC3)C2)[C@H](c2ccccc2)C1 (stereo partly drawn) [Example 57, 3-((7-((2S,4R)-4-Amino-2-phenylpiperidine-1-carbonyl)-10-fluoro-7-azaspiro[4.5]decan-10-yl)methyl)-6-phenylpyrimidin-4(3H)-one] | < 0.01 |
| COc1ccccc1-c1cc(=O)n(C[C@]2(OC)CCN(C(=O)N3CC[C@@H](NC(C)C)C[C@H]3c3cc(F)ccc3F)CC23CCCC3)cn1 [Example 190, 3-(((S)-7-((2S,4R)-2-(2,5-Difluorophenyl)-4-(isopropylamino)piperidine-1-carbonyl)-10-methoxy-7-azaspiro[4.5]decan-10-yl)methyl)-6-(2-methoxyphenyl)pyrimidin-4(3H)-one] | < 0.01 |
| CC(=O)N[C@@H]1CCN(C(=O)N2CC[C@@H](Cn3cnc(-c4ccccc4)cc3=O)C3(CCCC3)C2)[C@H](c2cc(F)ccc2F)C1 [Example 155, N-((2S,4R)-2-(2,5-Difluorophenyl)-1-((R)-10-((6-oxo-4-phenylpyrimidin-1(6H)-yl)methyl)-7-azaspiro[4.5]decane-7-carbonyl)piperidin-4-yl)acetamide] | < 0.01 |
| CN[C@@H]1CCN(C(=O)N2CC[C@@H](Cn3ccc(-c4ccccc4OC)cc3=O)C3(CCCC3)C2)[C@H](c2ccc(F)cc2)C1 [Example 120, 1-(((R)-7-((2S,4R)-2-(4-Fluorophenyl)-4-(methylamino)piperidine-1-carbonyl)-7-azaspiro[4.5]decan-10-yl)methyl)-4-(2-methoxyphenyl)pyridin-2(1H)-one] | < 0.01 |
| CCN[C@@H]1CCN(C(=O)N2CCC(Cn3cnc(-c4ccccc4)cc3=O)CC2)[C@H](c2ccccc2)C1 [Example 75, 3-((1-((2S,4R)-4-(Ethylamino)-2-phenylpiperidine-1-carbonyl)piperidin-4-yl)methyl)-6-phenylpyrimidin-4(3H)-one] | 0.01 to 0.1 |
| CN[C@@H]1CCN(C(=O)N2CC[C@@H](Cn3cnc4ccc(F)cc4c3=O)C3(CCCC3)C2)[C@H](c2cccc(F)c2)C1 [Example 167, 6-Fluoro-3-(((R)-7-((2S,4R)-2-(3-fluorophenyl)-4-(methylamino)piperidine-1-carbonyl)-7-azaspiro[4.5]decan-10-yl)methyl)quinazolin-4(3H)-one] | < 0.01 |
| CN[C@@H]1CCN(C(=O)N2CC[C@@H](Cn3cnc(-c4ccccc4C)cc3=O)C3(CCCC3)C2)[C@H](c2cccc(F)c2F)C1 [Example 136, 3-(((R)-7-((2S,4R)-2-(2,3-Difluorophenyl)-4-(methylamino)piperidine-1-carbonyl)-7-azaspiro[4.5]decan-10-yl)methyl)-6-(0-tolyl)pyrimidin-4(3H)-one] | < 0.01 |
| CN[C@@H]1CCN(C(=O)N2CC[C@@H](Cn3cnc(-c4ccccc4C)cc3=O)C3(CCCC3)C2)[C@H](c2cccc(F)c2)C1 [Example 119, 3-(((R)-7-((2S,4R)-2-(3-Fluorophenyl)-4-(methylamino)piperidine-1-carbonyl)-7-azaspiro[4.5]decan-10-yl)methyl)-6-(0-tolyl)pyrimidin-4(3H)-one] | < 0.01 |
| CN[C@@H]1CCN(C(=O)N2CC[C@@H](Cn3cnc(-c4ccccc4)cc3=O)C3(CCCC3)C2)[C@H](c2ccc(F)c(F)c2)C1 [Example 133, 3-(((R)-7-((2S,4R)-2-(3,4-Difluorophenyl)-4-(methylamino)piperidine-1-carbonyl)-7-azaspiro[4.5]decan-10-yl)methyl)-6-phenylpyrimidin-4(3H)-one] | < 0.01 |

Further lines, results first:

| IC50 [µM] | Structure (SMILES) |
| --- | --- |
| < 0.01 | COc1ccccc1-c1ccn(C[C@@H]2CCN(C(=O)N3CC[C@@H](N)C[C@H]3c3ccccc3)CC23CCCC3)c(=O)c1 [Example 59, 1-(((R)-7-((2S,4R)-4-Amino-2-phenylpiperidine-1-carbonyl)-7-azaspiro[4.5]decan-10-yl)methyl)-4-(2-methoxyphenyl)pyridin-2(1H)-one] |
| 1 to 20 | O=C(N1CC[C@@H](Cn2cnc(-c3ccccc3)cc2=O)C2(CCCC2)C1)N1CC[C@@H](Nc2ccccc2)C[C@H]1c1ccccc1 [Example 150, 6-Phenyl-3-(((R)-7-((2S,4R)-2-phenyl-4-(phenylamino)piperidine-1-carbonyl)-7-azaspiro[4.5]decan-10-yl)methyl)pyrimidin-4(3H)-one] |
| < 0.01 | N[C@@H]1CCN(C(=O)N2CC[C@@H](Cn3ccc(-c4ccccc4)cc3=O)C3(CCCC3)C2)[C@H](c2cccc(F)c2)C1 [Example 65, 1-(((R)-7-((2S,4R)-4-Amino-2-(3-fluorophenyl)piperidine-1-carbonyl)-7-azaspiro[4.5]decan-10-yl)methyl)-4-phenylpyridin-2(1H)-one] |
| 1 to 20 | CN(C)C(=O)[C@@H]1CCN(C(=O)N2CC[C@@H](Cn3cnc(-c4ccccc4)cc3=O)C3(CCCC3)C2)[C@H](c2ccccc2)C1 [Example 177, (2S,4R)-N,N-Dimethyl-1-((R)-10-((6-oxo-4-phenylpyrimidin-1(6H)-yl)methyl)-7-azaspiro[4.5]decane-7-carbonyl)-2-phenylpiperidine-4-carboxamide] |
| < 0.01 | N[C@@H]1CCN(C(=O)N2CC[C@@H](Cn3ccc(-c4ccccc4)cc3=O)C3(CCCC3)C2)[C@H](c2ccccc2)C1 [Example 23, 1-(((R)-7-((2S,4R)-4-Amino-2-phenylpiperidine-1-carbonyl)-7-azaspiro[4.5]decan-10-yl)methyl)-4-phenylpyridin-2(1H)-one] |
| 0.1 to 1 | N[C@@H]1CCN(C(=O)N2CC[C@H](Cn3cnc(-c4ccccc4)cc3=O)C3(CCCC3)C2)[C@H](c2ccccc2)C1 [Example 26] |
| 0.01 to 0.1 | CC(=O)N[C@@H]1CCN(C(=O)N2CC[C@@H](Cn3ccc(-c4ccccc4)cc3=O)C3(CCCC3)C2)[C@H](c2ccccc2)C1 [Example 93, N-((2S,4R)-1-((R)-10-((2-Oxo-4-phenylpyridin-1(2H)-yl)methyl)-7-azaspiro[4.5]decane-7-carbonyl)-2-phenylpiperidin-4-yl)acetamide] |
| < 0.01 | CN[C@@H]1CCN(C(=O)N2CC[C@@H](Cn3ccc(Cl)cc3=O)C3(CCCC3)C2)[C@H](c2ccccc2)C1 [Example 83, 4-Chloro-1-(((R)-7-((2S,4R)-4-(methylamino)-2-phenylpiperidine-1-carbonyl)-7-azaspiro[4.5]decan-10-yl)methyl)pyridin-2(1H)-one] |

From patent US20240327382A1 (ALMAC DISCOVERY LIMITED, priority 2021, published 2024)
